Patent publication US20100144675A1, “Regulation of sGC Function by Corrin Derivatives” (priority 2007, published 2010)

What was measured:
[1] = target: T1, recombinant human α1/β1 sGC (Homo sapiens, UniProt Q02108+Q02153); experiment: cGMP production by purified recombinant sGC (activation by tetrapyrroles); type: biochemical; settings: for concentration at which sGC activation is maximal (dose response): dose response of corrins, FIG. 4C; for shift of EC50 of sGC activation in the combination: FIG. 4D/4E
T1 construct: made in house
T1 sequence (Q02108 1-690): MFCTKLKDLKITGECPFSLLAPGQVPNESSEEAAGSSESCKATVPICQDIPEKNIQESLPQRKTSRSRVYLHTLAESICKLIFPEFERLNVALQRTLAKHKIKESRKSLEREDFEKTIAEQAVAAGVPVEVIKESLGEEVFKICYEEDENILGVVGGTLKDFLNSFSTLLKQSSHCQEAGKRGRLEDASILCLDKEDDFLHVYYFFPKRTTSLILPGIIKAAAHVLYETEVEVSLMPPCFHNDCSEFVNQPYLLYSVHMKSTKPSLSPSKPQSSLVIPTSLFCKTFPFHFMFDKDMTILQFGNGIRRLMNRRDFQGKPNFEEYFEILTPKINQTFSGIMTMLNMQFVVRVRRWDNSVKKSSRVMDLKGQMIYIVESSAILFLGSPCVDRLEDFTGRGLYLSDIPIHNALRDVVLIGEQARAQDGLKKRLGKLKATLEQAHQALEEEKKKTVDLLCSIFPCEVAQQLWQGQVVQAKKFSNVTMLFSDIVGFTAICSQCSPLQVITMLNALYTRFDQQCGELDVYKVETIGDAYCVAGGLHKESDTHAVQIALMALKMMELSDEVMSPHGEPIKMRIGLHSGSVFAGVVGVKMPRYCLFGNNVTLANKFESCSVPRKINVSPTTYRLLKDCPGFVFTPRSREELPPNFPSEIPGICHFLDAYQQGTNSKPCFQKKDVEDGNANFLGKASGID
T1 sequence (Q02153 1-619): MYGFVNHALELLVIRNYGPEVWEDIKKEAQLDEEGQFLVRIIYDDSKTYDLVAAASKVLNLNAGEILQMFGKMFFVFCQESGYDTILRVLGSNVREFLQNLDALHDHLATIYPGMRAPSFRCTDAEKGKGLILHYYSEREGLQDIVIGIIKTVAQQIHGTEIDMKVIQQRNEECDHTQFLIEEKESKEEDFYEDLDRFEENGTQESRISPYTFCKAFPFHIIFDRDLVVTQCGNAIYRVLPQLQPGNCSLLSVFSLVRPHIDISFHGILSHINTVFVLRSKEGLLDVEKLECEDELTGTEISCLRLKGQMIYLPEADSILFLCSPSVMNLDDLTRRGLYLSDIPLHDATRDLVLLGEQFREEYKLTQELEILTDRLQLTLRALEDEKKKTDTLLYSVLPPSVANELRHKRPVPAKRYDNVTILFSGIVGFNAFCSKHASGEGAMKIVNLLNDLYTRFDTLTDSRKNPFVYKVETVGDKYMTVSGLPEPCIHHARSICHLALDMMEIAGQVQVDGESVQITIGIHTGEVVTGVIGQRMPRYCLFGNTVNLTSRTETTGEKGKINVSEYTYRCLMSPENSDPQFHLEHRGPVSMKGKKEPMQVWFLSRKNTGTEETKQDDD
Description: FIG. 4. Effect of tetrapyrroles on sGC activity in vitro. A. cGMP production by recombinant human α1/β1 sGC induced by 50 μM factor B, bilirubin, nitrite ionophore 1, uroporphyrin I, or protoporphyrin IX. B. cGMP production by recombinant human α1/β1 sGC induced by 50 μM factor B, bilirubin, nitrite ionophore 1, uroporphyrin I, or protoporphyrin IX alone or in the presence of 1 μM BAY41-2272 or HMR1766. C. cGMP production by recombinant al (31 sGC in response to increasing concentration of protoporphyrin, factor B, vitamin B12 and vitamin B12a. D. cGMP production by recombinant human al/131 sGC induced by various doses of factor B at various doses of BAY41-2272. E. cGMP production by recombinant human α1/β1 sGC induced by various doses of factor B at various doses of BAY41-2272.
Activation of purified sGC by various tetrapyrroles. […] Methods of recombinant expression and purification of human α1/β11 isoform of sGC have been developed^23, 24. Measurements of enzymatic activity and multiple spectral studies performed using this recombinant enzyme^10, 23, 25 indicate that these recombinant preparations have identical properties as the native enzyme. We tested a series of tetrapyrrole compounds (FIG. 3), which are structurally related to PPIX. Similar to PPIX, majority of the tested tetrapyrroles contain four pyrrole rings connected to form a microcycle. In the case of billirubin, however, the microcycle is interrupted. […] We then compared fB with vitamin B12 (cyanocobalamine) or its derivative B12a (aquacobalamine) and PPIX, all at 50 μM. […] HMR1766 was kindly provided by Sanofi-Avantis (see a letter attached).

sGC = settings: cited from earlier work
anesthetized rats = experiment: Blood pressure (MAP) and cardiac output in instrumented anesthetized rats; type: in vivo, Sprague Dawley rats; settings: for change in blood pressure after bolus: 500 μl bolus into abdominal aorta, fB at 5 and 15 mg/ml or 100 μg/kg BAY41-2272; for change in cardiac output after bolus: 500 μl bolus, data not shown
Description: FIG. 6. Effect of factor B and BAY41-2272 on mean arterial pressure (MAP) in instrumented anesthetized rats. Indicated amount of drugs were delivered as a 500 μl bolus through a catheter into the abdominal aorta and MAP were recorded as described in section D1.2. “Contr”—500 μl of saline,
Effect of factor B and BAY41-2272 on blood pressure of anesthetized rats. We also measured the effect of bolus application of fB on changes in hemodynamic parameters in anesthetized rats. Sprague Dawley rats were surgically implanted with a 10-MHz pulsed Doppler flow and a displacement probe around the ascending aorta and sutured to the left ventricular wall, respectively. A Tygon catheter was placed into the abdominal aorta via the femoral artery. After recovery the animals were anesthetized with halothane, intubated, and ventilated under isothermic conditions. Changes in systolic, diastolic, mean arterial pressures and cardiac output were recorded and processed with a multichannel-pulsed Doppler flow/dimension system and digitized (A/D converter). Before experimental treatments with fB and/or BAY41-2272 the animals were treated with a bolus of 30 μg/kg of sodium nitroprusside to confirm the integrity of the catheter and delivery system and the responsiveness of animals to drugs. After the baseline was established a 500 μl bolus of fB at 5 and 15 mg/ml or 100 μg/kg of BAY41-2272 (Alexis, San Diego, Calif., USA) was delivered and the changes in blood pressure (FIG. 6A). and cardiac output were recorded (data not shown).

rat aortic rings [2] = experiment: Relaxation of phenylephrine-preconstricted isolated rat aortic rings; type: cell-based, Sprague Dawley rats; settings: for vascular relaxation of preconstricted aortic rings: 1 μM phenylephrine preconstriction, cumulative addition
Description: FIG. 5. Synergistic effect of corrin derivatives and BAY41-2272 on relaxation of rat aortic rings. The measurements were performed in the presence of corrin derivatives±BAY41-2272 as described in the text. Data are average of two aortic rings per each dose-response curve. Arrow indicates the shift in the effective dose and increased response.
FB-dependent relaxation of isolated rat aorta. In addition to in vitro analysis of sGC activity, we tested whether fB and vitamin B12 derivatives will induce relaxation of preconstricted rat aortic rings. The descending thoracic aorta was excised from freshly sacrificed Sprague Dawley rats, cleaned of adherent tissue and cut into 3-4 mm rings. Each ring was suspended between two wires hooks and mounted under 1 mN of passive tension in 4 ml organ chambers filled with Krebs' solution at 37° C., pH 7.4 and continuously aerated with 95% O2/5% CO2. The changes in isometric tension were measured by a force transducer (Grass Instruments, USA) connected to a PowerLab 400™ data-acquisition system (ADInstruments, Colorado Springs, Mass., USA). Ring preparations were equilibrated for 1 h before the start of the experiments. After the equilibration period, rings were preconstricted with 1 μM phenylephrine and maximal contractile response is determined. After maximal constriction the agonists (vitamin B12, methyl-B12, fB, BAY41-2272) were added cumulatively and changes in isometric tension determined. […] In the presence of a low dose of BAY41-2272 (0.1 μM) EC50 of fB decreased while the response increased.

rat aortic rings [3] = experiment: cGMP levels in treated rat aortic rings; type: cell-based; settings: 5 minutes incubation, 37° C., in combination with BAY 41-2272
Description: FIG. 7. Changes in cGMP levels in rat aortic rings. Aortic rings were incubated with saline or saline with factor B in the presence or absence of BAY 41-2272 for 5 minutes at 37° C. cGMP was extracted and quantified.
Changes in cGMP levels in isolated rat aorta treated with factor B and BAY 41-2272. In order to confirm that relaxation of blood vessels and decreased blood pressure in response to factor B is dependent on sGC activity we measured cGMP levels in treated aortic rings.

[4] = combination of BAY41-2272 and fB
[5] = fB together with 100 μg/kg BAY41-2272, FIG. 6B
[6] = in the presence of 0.1 μM BAY41-2272

Question: For C/C1=C2/[N-][C@H]([C@H](CC(N)=O)[C@@]2(C)CCC(=O)NC[C@@H](C)OP(=O)([O-])OC2C(O)[C@@H](n3cnc4cc(C)c(C)cc43)O[C@H]2CO)[C@]2(C)N=C(/C(C)=C3N=C(/C=C4N=C1[C@@H](CCC(N)=O)C\4(C)C)[C@@H](CCC(N)=O)[C@]\3(C)CC(N)=O)[C@@H](CCC(N)=O)[C@]2(C)CC(N)=O.O.[Co+2] (some centres unmarked) [vitamin B12a, aquacobalamine, reference compound], which “concentration at which sGC activation is maximal (dose response)” value (from here on “concentration”) [1] is on record?
Answer: Its value is 50 µM.

Question: With [C-]#[O+] [CO, carbon monoxide] as the molecule, how does the “cGMP produced compared to the resting enzyme” value (sGC; low-output state) read?
Answer: The value was 3-4 time.

Question: What does the source list for Nc1nc(-c2nn(Cc3ccccc3F)c3ncccc23)nc(N)c1N1CCOCC1 [BAY41-2272, reference compound]?
Answer: shift of EC50 of sGC activation in the combination [1, 4]: shifted the EC50 to lower concentrations; MAP after administration (anesthetized rats; 100 μg/kg BAY41-2272 alone): stabilize their MAP at lower values; time lower MAP is maintained (anesthetized rats; 100 μg/kg BAY41-2272 alone): at least 30 minutes; change in blood pressure after bolus (anesthetized rats): Transient decreased in blood pressure; change in cardiac output after bolus (anesthetized rats): increased cardiac output

Question: Which “vascular relaxation of preconstricted aortic rings” value (“vascular relaxation” below) (rat aortic rings [2]) does the source give for C/C1=C2/[N-][C@H]([C@H](CC(N)=O)[C@@]2(C)CCC(=O)NC[C@H](C)OP(=O)([O-])O[C@H]2[C@@H](O)[C@@H](n3cnc4cc(C)c(C)cc43)O[C@@H]2CO)[C@]2(C)N=C(/C(C)=C3N=C(/C=C4N=C1[C@@H](CCC(N)=O)C\4(C)C)[C@@H](CCC(N)=O)[C@]\3(C)CC(N)=O)[C@@H](CCC(N)=O)[C@]2(C)CC(N)=O.[CH3-].[Co+3] [methyl-B12, methylcobalamin, reference compound] here?
Answer: The value was “can induce vascular relaxation”.

Question: For [N]=O [NO, nitric oxide], which “increase in rate of cGMP production” value (sGC; high-output state) is on record?
Answer: Its value is greater than 100 fold.

Question: For C/C1=C2/[N-]C([C@H](CC(N)=O)[C@@]2(C)CCC(=O)NCC(C)O)[C@]2(C)N=C(/C(C)=C3N=C(/C=C4N=C1[C@@H](CCC(N)=O)C\4(C)C)[C@@H](CCC(N)=O)[C@]\3(C)CC(N)=O)[C@@H](CCC(N)=O)[C@]2(C)CC(N)=O.[C-]#N.[C-]#N.[Co] (some centres unmarked) [factor B, dicyanocobinamide], which “sGC activation in combination with HMR1766, FIG. 4B” value ([1]; 50 μM with 1 μM HMR1766) is on record?
Answer: Its value is “even more effective than PPIX/HMR1766”.

Question: And the “sGC activation compared with vitamin B12, B12a and PPIX, FIG. 4B” value ([1]; all at 50 μM)?
Answer: The value was “effective activator of sGC”.

Question: What about the “sGC activation by the combination (synergy)” value [1, 4] of the same molecule?
Answer: Its value is “synergistically enhanced the enzyme”.

Question: What about the “shift of EC50 of sGC activation in the combination” value [1, 4] of the same molecule?
Answer: Its value is “shifted the EC50 to lower concentrations”.

Question: And the “concentration” value [1]?
Answer: The value was “did not reach maximum in the tested range of concentrations”.

Question: And the “sGC activation (cGMP production), FIG. 4A” value ([1]; tetrapyrrole alone at 50 μM)?
Answer: Its value is “significantly activated sGC”.

Question: What about the “levels of cGMP in aortic rings” value (rat aortic rings [3]) of the same molecule?
Answer: The value was “increased”.

Question: And the “change in blood pressure after bolus” value (anesthetized rats)?
Answer: The value was “Transient decreased in blood pressure”.

Question: And the “change in cardiac output after bolus” value (anesthetized rats)?
Answer: Its value is “increased cardiac output”.

Question: And the “baseline to which MAP was restored, versus BAY41-2272 alone” value (anesthetized rats; combined fB/BAY41-2272 treatment, FIG. 6B)?
Answer: The value was “even lower and more prolonged”.

Question: And the “amplitude of drop in blood pressure” value (anesthetized rats; [5])?
Answer: Its value is “enhanced the amplitude of BAY41-2272-induced drop in blood pressure”.

Question: What about the “time of acutely decreased blood pressure” value (anesthetized rats; [5]) of the same molecule?
Answer: Its value is “significantly prolonged”.

Question: And the “vascular relaxation” value (rat aortic rings [2])?
Answer: Its value is “can induce vascular relaxation”.

Question: What about the “EC50 of aortic ring relaxation” value (rat aortic rings [2]; [6]) of the same molecule?
Answer: Its value is “decreased”.

Question: And the relaxation response (rat aortic rings [2]; [6])?
Answer: The relaxation response was “increased”.

Question: With “cyanocobalamin [vitamin B12, reference compound]” as the molecule, how does the “concentration” value [1] read?
Answer: The value was 50 µM.

Question: And the “vascular relaxation” value (rat aortic rings [2])?
Answer: Its value is “can induce vascular relaxation”.
